# Where “and” joins values, the source holds several entries; their conditions need not be identical. Equal entries are not always repeated. Where two headings read alike, the source gives them in different places.
# Experiments:
# [1] = molecular target: T1, Q147A mutant degron (ANQS) fused to EGFP (Homo sapiens, UniProt Q96SW2+Q9UKT9, Q147A); test: Ratiometric EGFP:mCherry flow cytometry degradation assay, 18 h; format: cell-based; conditions: Jurkat, read-out: DMax Q147A/%
# T1 construct: pLVX-Sprout-IKZF3 130-189aa Q147A (ANQS); expressed in transfected cells
# [2] = molecular target: T2, endogenous IKZF3 in Jurkat cells (Homo sapiens, UniProt Q96SW2+Q9UKT9); test: Western blot for endogenous IKZF3; format: cell-based
# T2 construct: endogenous in cells; host or cells: Jurkat (transduced with ZF-EGFP constructs, or untransduced)
# [3] = molecular target: T3, ZF-EGFP fusion protein with the HEIP, AEVK, WEIS, or WT ZF degron (Homo sapiens, UniProt Q9UKT9); test: Western blot for ZF-EGFP fusion protein; format: cell-based
# T3 construct: The degron spans residues 130–189 of IKZF3; expressed in transfected cells; host or cells: Jurkat, lentivirally transduced, presorted mCherry+
# [4] = tested on: Jurkat cells; test: TMTpro quantitative proteomics, 16 h; conditions: Jurkat whole cell extracts, TMTpro SPS-MS3
# Procedure: (§1) Quantitative proteomics screens were carried out in untransduced Jurkat cells, embryonic stem cells (ESCs), and the multiple myeloma cell line, MM.1S. We used Jurkat cells, as our work up to this point had employed this cell line, and we selected ESCs and MM.1S cells as they express known CRBN neosubstrates, including IKZF1, IKZF3, RAB28, RNF166, SALL4, ZFP91, and ZNF827.
# (§2) Proteomics - cell lysis and protein digestion
# (§3) The viability of Jurkat cells was tested after 16-h treatment with corresponding chemicals
# viable cells in each condition. Next, ~10^7 cells per condition were collected by centrifugation (1000 rpm), washed twice with ice-cold PBS, and lysed in RIPA buffer [50 mM HEPES pH 7.4, 150 mM NaCl, 1% sodium deoxycholate, 1% NP-40, 0.1% SDS, 10 mM sodium pyrophosphate, 10 mM β-glycerophosphate, 2.5 mM MgCl2, 200 µM TCEP, phosphatase and protease inhibitor cocktail (in-house)], to produce whole cell extracts. Whole-cell extracts were sonicated, and protein concentrations were determined using the Bradford assay. Protein extracts (100 µg) were subjected to disulfide bond reduction with 5 mM TCEP (10 min) and alkylation with 25 mM chloroacetamide (20 min). Methanol–chloroform precipitation was performed prior to protease digestion. In brief, four parts of neat methanol were added to each sample and vortexed, one part chloroform was added to the sample and vortexed, and finally, three parts water was added to the sample and vortexed. The sample was centrifuged at 8000 rpm for 5 min at room temperature and subsequently washed twice with 100% methanol. Samples were resuspended in 100 mM EPPS pH8.5 containing
# 0.1% RapiGest and digested at 37 °C for 6 h with trypsin at a 100:1 protein-to-protease ratio.
# Samples were then subjected to TMTpro
# labeling. The preparation of MM1S cell extracts was conducted using the same procedure as for
# Jurkat cells. ESC cells were plated onto 6 cm dishes 24 hours prior to the chemical treatment.
# Following the chemical treatment, the cells on the dish were washed with DPBS four times, after
# which RIPA buffer was added directly to the dish, and the lysate was collected using a scraper.
# The whole cell lysates were then processed similarly to the Jurkat cell lysates.
# Proteomics - Tandem mass tag labeling
# Proline-based reporter isobaric Tandem Mass Tag (TMTpro) labeling of dried peptide samples
# resuspended in 100 mM EPPS pH 8.5, was carried out as follows. TMTpro reagent was added to
# samples (100 µg peptide), along with acetonitrile, to achieve a final acetonitrile concentration of
# approximately 30% (v/v). Following incubation at room temperature for 1 h, the labeling efficiency
# of a small aliquot was tested. The reaction was then quenched with hydroxylamine to a final
# concentration of 0.5% (v/v) for 15 min. The TMTpro-labeled samples were pooled together at a
# 1:1 ratio. The sample was vacuum centrifuged to near dryness and subjected to C18 solid-phase
# The dried TMTpro-labeled sample was resuspended in 100 μL of 10 mM NH4HCO3 pH 8.0 and
# fractionated using basic pH reverse phase HPLC 40. Briefly, samples were offline fractionated over
# a 90 min run, into 96 fractions by high pH reverse-phase HPLC (Agilent LC1260) through an aeris
# peptide xb-c18 column (Phenomenex; 250 mm × 3.6 mm) for total proteome with mobile phase A
# containing 5% acetonitrile and 10 mM NH4HCO3, and mobile phase B containing 90% acetonitrile
# [5] = tested on: MM.1S cells; test: TMTpro quantitative proteomics, 16 h; conditions: 1 μM
# Procedure: as §1, §2, §3
# viable cells in each condition. Next, ~10^7 cells per condition were collected by centrifugation (1000 rpm), washed twice with ice-cold PBS, and lysed in RIPA buffer [50 mM HEPES pH 7.4, 150 mM NaCl, 1% sodium deoxycholate, 1% NP-40, 0.1% SDS, 10 mM sodium pyrophosphate, 10 mM β-glycerophosphate, 2.5 mM MgCl2, 200 µM TCEP, phosphatase and protease inhibitor cocktail (in-house)], to produce whole cell extracts. Whole-cell extracts were sonicated, and protein concentrations were determined using the Bradford assay. Protein extracts (100 µg) were subjected to disulfide bond reduction with 5 mM TCEP (10 min) and alkylation with 25 mM chloroacetamide (20 min). Methanol–chloroform precipitation was performed prior to protease digestion. […]
# [6] = tested on: library of 8380 IKZF3 degrons fused to EGFP in Jurkat cells; test: Pooled mutant ZF degron library screen (FACS EGFPlow vs EGFP+, NGS), 18 h; format: cell-based, human;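 on logFC: Log2 fold change of EGFPlow over EGFP+ representation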
# [7] = molecular target: T4, endogenous IKZF1 in Jurkat cells (Homo sapiens, UniProt Q13422+Q96SW2); test: Endogenous IKZF1 immunostaining, fluorescent antibody flow cytometry assay; format: cell-based; conditions: 18 h
# T4 construct: endogenous in cells; host or cells: Jurkat (untransduced for immunostaining; WEIS-EGFP-transduced for the blot)
# Procedure: As we sought to screen a large number of mutant ZF degrons with different mutation combinations, we pursued a library screen approach similar to that previously employed by Sievers et al. and Jan et al. , Only the most promising compounds from the original set of 36 were used for the library screen. To help narrow the candidates, a subset of compounds was tested for endogenous IKZF1 degradation in Jurkat cells using a fluorescent antibody flow cytometry assay (Figure S5). […] Thalidomide and lenalidomide were also included as controls.
# Endogenous IKZF1 Immunostaining
# 37 °C and 5% CO2. Following incubation, cells were stained with LIVE/DEAD™ Fixable Aqua Dead Cell Stain (Thermo) diluted 1000X in PBS for 30 min at room temperature and then incubated with Human TruStain FcX block (Biolegend) diluted 40X in PBS + 1% FBS (Gibco) for 10 min at room temperature. Intranuclear staining of IKZF1 was carried out using the Transcription Factor Buffer Set (BD Bioscience) according to the manufacturer's protocol and staining with IKZF1 AF488 antibody (clone R32-1149, BD Bioscience) diluted 40X for 30 minutes at room temperature. Cells were acquired on a Cytoflex S (Beckman Coulter) and data analysed using FlowJo 10.8.1 9 (BD).
# [8] = protein AADAT isoform 2 (Q8N5Z0-2)
# [9] = WT degron, residues 146/147/149/150/152/153/154/155/167: FQNQGASFL
# [10] = degron residues 146/147/149/150/152/153/154/155/167: FADIGAAFL
# [11] = degron residues 146/147/149/150/152/153/154/155/167: FADIGACFL
# [12] = degron residues 146/147/149/150/152/153/154/155/167: FADIGADFL
# [13] = degron residues 146/147/149/150/152/153/154/155/167: FADIGAEFL
# [14] = degron residues 146/147/149/150/152/153/154/155/167: FREIGAPFL
# [15] = degron residues 146/147/149/150/152/153/154/155/167: FYEVGACFL
# T1 sequence (Q9UKT9 130-189 Q147A): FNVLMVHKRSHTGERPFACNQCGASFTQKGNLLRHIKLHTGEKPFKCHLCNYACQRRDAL
# T1 sequence (Q96SW2 whole entry, the tested form may be a part): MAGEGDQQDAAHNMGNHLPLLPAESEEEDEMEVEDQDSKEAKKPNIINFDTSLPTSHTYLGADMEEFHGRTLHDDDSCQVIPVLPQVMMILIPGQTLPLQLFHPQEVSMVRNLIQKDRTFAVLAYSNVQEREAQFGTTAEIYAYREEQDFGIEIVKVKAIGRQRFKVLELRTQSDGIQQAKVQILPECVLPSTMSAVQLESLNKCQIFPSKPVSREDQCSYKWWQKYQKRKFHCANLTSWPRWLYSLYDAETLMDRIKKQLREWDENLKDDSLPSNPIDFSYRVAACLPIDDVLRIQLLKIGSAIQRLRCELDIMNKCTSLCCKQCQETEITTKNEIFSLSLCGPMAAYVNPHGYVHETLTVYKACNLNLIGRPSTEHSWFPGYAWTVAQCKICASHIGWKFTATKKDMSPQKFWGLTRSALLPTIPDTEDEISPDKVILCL
# T1 sequence (Q16531 whole entry partner, the tested form may be a part): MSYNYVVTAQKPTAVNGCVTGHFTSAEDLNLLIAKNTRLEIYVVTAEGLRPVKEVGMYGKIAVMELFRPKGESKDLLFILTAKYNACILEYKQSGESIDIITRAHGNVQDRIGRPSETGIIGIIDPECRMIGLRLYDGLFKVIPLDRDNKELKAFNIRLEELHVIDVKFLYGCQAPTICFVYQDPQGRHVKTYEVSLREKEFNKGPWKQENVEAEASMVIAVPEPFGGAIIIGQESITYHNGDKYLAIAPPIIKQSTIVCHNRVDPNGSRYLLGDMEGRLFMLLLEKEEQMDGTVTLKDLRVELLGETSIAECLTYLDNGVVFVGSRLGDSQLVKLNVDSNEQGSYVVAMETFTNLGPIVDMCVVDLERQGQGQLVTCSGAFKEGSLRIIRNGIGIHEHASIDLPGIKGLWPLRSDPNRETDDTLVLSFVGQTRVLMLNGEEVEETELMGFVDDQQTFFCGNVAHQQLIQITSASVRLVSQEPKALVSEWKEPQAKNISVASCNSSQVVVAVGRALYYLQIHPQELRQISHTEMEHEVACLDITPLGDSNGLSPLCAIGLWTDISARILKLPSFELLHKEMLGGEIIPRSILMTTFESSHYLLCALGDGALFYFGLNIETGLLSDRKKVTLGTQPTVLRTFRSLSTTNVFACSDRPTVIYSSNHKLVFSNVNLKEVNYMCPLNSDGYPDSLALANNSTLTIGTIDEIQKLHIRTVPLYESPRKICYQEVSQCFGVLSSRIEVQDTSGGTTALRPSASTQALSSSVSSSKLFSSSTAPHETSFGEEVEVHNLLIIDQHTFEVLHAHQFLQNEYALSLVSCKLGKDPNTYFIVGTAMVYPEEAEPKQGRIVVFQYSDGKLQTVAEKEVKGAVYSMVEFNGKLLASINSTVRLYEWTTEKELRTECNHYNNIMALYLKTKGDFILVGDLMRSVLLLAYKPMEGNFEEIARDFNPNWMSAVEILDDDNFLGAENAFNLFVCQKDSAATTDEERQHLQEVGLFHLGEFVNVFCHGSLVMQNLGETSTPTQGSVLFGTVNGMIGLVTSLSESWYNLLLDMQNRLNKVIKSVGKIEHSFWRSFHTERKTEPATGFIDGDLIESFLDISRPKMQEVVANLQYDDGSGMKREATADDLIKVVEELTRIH
# T2 sequence (Q9UKT9 whole entry): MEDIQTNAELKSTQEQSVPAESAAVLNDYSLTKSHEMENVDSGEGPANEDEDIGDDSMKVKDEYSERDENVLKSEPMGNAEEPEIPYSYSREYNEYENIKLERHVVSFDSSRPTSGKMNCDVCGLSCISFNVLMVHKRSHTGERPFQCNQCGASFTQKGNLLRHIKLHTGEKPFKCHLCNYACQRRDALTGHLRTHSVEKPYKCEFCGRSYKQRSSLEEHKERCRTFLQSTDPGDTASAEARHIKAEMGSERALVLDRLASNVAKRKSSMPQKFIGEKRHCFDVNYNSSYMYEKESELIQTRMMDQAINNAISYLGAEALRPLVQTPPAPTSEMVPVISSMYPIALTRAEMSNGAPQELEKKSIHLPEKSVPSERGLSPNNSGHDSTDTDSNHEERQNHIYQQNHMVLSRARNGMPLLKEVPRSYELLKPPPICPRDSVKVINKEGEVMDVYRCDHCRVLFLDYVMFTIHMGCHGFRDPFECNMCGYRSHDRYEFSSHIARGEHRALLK
# T2 sequence (Q96SW2 whole entry): as the sequence (Q96SW2 whole entry, the tested form may be a part) above
# T2 sequence (Q16531 whole entry partner): as the sequence (Q16531 whole entry partner, the tested form may be a part) above
# T4 sequence (Q13422 whole entry): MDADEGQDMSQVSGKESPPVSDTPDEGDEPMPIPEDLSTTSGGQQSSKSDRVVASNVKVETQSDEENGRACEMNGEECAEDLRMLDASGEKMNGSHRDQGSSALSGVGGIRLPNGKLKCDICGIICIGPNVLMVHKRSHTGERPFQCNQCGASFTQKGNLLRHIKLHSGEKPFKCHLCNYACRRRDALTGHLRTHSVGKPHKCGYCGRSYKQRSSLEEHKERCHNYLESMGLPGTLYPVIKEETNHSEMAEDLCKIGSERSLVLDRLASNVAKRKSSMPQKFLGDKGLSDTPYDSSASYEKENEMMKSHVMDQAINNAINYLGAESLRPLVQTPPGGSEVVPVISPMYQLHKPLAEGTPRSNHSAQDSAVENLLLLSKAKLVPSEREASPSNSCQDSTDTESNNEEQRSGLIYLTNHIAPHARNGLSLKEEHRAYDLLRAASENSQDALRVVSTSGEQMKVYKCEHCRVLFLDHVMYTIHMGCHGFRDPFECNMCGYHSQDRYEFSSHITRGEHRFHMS
# T4 sequence (Q96SW2 whole entry): as the sequence (Q96SW2 whole entry, the tested form may be a part) above
# T4 sequence (Q16531 whole entry partner): as the sequence (Q16531 whole entry partner, the tested form may be a part) above
# T3 sequence (Q96SW2 whole entry, the tested form may be a part): as the sequence (Q96SW2 whole entry, the tested form may be a part) above
# T3 sequence (Q9UKT9 130-189): as the sequence (Q9UKT9 130-189 Q147A) above, with A18Q counted along it
# T3 sequence (Q16531 2-1140, further chain): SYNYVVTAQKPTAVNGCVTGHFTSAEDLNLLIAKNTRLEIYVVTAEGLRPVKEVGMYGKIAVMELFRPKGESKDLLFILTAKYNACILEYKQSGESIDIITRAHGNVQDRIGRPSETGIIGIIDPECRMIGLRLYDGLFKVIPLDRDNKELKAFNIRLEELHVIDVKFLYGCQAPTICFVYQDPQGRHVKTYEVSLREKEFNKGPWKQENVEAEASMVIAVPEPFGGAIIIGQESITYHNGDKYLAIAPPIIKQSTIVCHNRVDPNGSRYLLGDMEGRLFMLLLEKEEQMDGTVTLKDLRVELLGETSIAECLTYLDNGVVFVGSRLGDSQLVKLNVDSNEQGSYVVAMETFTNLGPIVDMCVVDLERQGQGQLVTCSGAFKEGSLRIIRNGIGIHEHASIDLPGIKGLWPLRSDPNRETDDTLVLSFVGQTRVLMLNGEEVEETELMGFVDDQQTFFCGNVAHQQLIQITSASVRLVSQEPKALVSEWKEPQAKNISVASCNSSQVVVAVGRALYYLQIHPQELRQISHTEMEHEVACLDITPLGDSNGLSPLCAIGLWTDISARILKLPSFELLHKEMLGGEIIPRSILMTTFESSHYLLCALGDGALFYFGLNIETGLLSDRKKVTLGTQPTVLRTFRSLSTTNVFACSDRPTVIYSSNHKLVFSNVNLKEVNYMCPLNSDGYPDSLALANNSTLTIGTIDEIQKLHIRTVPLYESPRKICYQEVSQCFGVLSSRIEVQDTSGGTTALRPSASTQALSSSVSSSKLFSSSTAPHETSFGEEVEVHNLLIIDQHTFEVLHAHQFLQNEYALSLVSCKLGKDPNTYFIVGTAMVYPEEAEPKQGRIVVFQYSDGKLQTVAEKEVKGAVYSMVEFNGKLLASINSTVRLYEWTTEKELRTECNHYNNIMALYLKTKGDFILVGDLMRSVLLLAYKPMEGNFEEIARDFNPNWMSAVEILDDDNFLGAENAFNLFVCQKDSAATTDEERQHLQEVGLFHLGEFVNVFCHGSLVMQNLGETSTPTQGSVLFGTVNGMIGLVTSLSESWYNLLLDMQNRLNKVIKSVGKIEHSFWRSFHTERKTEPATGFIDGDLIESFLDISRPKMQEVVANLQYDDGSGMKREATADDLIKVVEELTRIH
smiles,measurement,setting,value
"Nc1cccc2c1C(=O)N(C1CCC(=O)NC1=O)C2=O (centres unmarked) [Compound 2, pomalidomide]",Dmax,[1],94%
same,degradation of endogenous IKZF3 (Western blot),[2],did cause IKZF3 degradation
same,endogenous IKZF3 levels (Western blot),[2],depleted endogenous IKZF3
same,degradation of WT degron-tagged EGFP (Western blot),[3],induced degradation of EGFP
same,"Scaled value (to 150), replicate 01",[4]; protein A2M (P01023),7.144
same,"Scaled value (to 150), replicate 02",[4]; protein A2M (P01023),8.281
same,"Scaled value (to 150), replicate 03",[4]; protein A2M (P01023),7.913
same,"Scaled value (to 150), replicate 01",[4]; protein AAAS (Q9NRG9),9.781
same,"Scaled value (to 150), replicate 02",[4]; protein AAAS (Q9NRG9),9.111
same,"Scaled value (to 150), replicate 03",[4]; protein AAAS (Q9NRG9),9.328
same,"Scaled value (to 150), replicate 01",[4]; protein AACS (Q86V21),9.6081
same,"Scaled value (to 150), replicate 02",[4]; protein AACS (Q86V21),10.2184
same,"Scaled value (to 150), replicate 03",[4]; protein AACS (Q86V21),9.9438
same,"Scaled value (to 150), replicate 01",[4]; [8],9.467
same,"Scaled value (to 150), replicate 02",[4]; [8],10.1133
same,"Scaled value (to 150), replicate 03",[4]; [8],9.458
same,proteins significantly degraded (quantitative proteomics),[5],"IKZF1, IKZF3, and at least 6 other proteins were significantly degraded"
O=C1CCC(N2C(=O)c3ccc(N4CCOCC4)cc3C2=O)C(=O)N1 (centres unmarked) [Compound 22],Dmax,"[1]; 18 h, Fig 2B",76%
same,Log2FC,[6]; [9],-1.0370
same,logFC,[6]; [10],2.037
same,logFC,[6]; [11],0.5955
same,logFC,[6]; [12],-1.619
same,logFC,[6]; [13],-0.4533
same,Log2FC,[6]; degron residues 146/147/149/150/152/153/154/155/167: FFEIGACFL,3.8315
same,Log2FC,[6]; degron residues 146/147/149/150/152/153/154/155/167: FIPVGAPFL,3.937
same,Log2FC,[6]; [14],3.9835 and 3.984
same,Log2FC,[6]; degron residues 146/147/149/150/152/153/154/155/167: FWDVGANFL,3.8903
same,Log2FC,[6]; degron residues 146/147/149/150/152/153/154/155/167: FWDVGAQFL,3.8513
same,Log2FC,[6]; degron residues 146/147/149/150/152/153/154/155/167: FWEIGAAFL,3.8306
same,Log2FC,[6]; degron residues 146/147/149/150/152/153/154/155/167: FWEIGAQFL,3.9298 and 3.93
same,Log2FC,[6]; degron residues 146/147/149/150/152/153/154/155/167: FWEVGAAFL,3.9041
same,Log2FC,[6]; degron residues 146/147/149/150/152/153/154/155/167: FWEVGAHFL,3.9186
same,Log2FC,[6]; degron residues 146/147/149/150/152/153/154/155/167: FWEVGAKFL,3.8571
same,Log2FC,[6]; degron residues 146/147/149/150/152/153/154/155/167: FWEVGANFL,3.8564
same,Log2FC,[6]; degron residues 146/147/149/150/152/153/154/155/167: FWPVGANFL,3.8155
same,Log2FC,[6]; degron residues 146/147/149/150/152/153/154/155/167: FWPVGAQFL,3.9190
same,Log2FC,[6]; degron residues 146/147/149/150/152/153/154/155/167: FYEIGAKFL,3.8391
same,Log2FC,[6]; degron residues 146/147/149/150/152/153/154/155/167: FYEIGATFL,4.0154 and 4.054
same,Log2FC,[6]; [15],3.8457
same,Log2FC,[6]; degron residues 146/147/149/150/152/153/154/155/167: FYEVGANFL,3.8762
same,Log2FC,[6]; degron residues 146/147/149/150/152/153/154/155/167: FYEVGASFL,3.8615
same,Log2FC,[6]; degron residues 146/147/149/150/152/153/154/155/167: FYEVGATFL,4.1392 and 4.14
same,Log2FC,[6]; degron residues 146/147/149/150/152/153/154/155/167: LYEIGFRCL,3.9018
same,degradation of endogenous IKZF1,[7],did not induce degradation of endogenous IKZF1
O=C1CCC(N2C(=O)c3cccc(OCc4ccccc4)c3C2=O)C(=O)N1 (centres unmarked) [Compound 30],Dmax,"[1]; 18 h, Fig 2B",85%
O=C1CCC(N2C(=O)c3cccc(OCc4cccnc4)c3C2=O)C(=O)N1 (centres unmarked) [Compound 31],Dmax,"[1]; 18 h, Fig 2B",82%
Cc1ccccc1COc1cccc2c1C(=O)N(C1CCC(=O)NC1=O)C2=O (centres unmarked) [Compound 32],Dmax,"[1]; 18 h, Fig 2B",65%
O=C1CCC(N2C(=O)c3cccc(NC(c4ccccc4)c4ccccc4)c3C2=O)C(=O)N1 (centres unmarked) [Compound 33],Dmax,"[1]; 18 h, Fig 2B",97%
same,Log2FC,[6]; [9],-1.2556
same,logFC,[6]; [10],-0.4744
same,logFC,[6]; [11],-0.1939
same,logFC,[6]; [12],-2.168
same,logFC,[6]; [13],-2.426
same,Log2FC,[6]; degron residues 146/147/149/150/152/153/154/155/167: FGPVGAFFL,3.1139
same,Log2FC,[6]; degron residues 146/147/149/150/152/153/154/155/167: FMEIGAAFL,3.1949
same,Log2FC,[6]; degron residues 146/147/149/150/152/153/154/155/167: FMEIGAPFL,3.1328
same,Log2FC,[6]; degron residues 146/147/149/150/152/153/154/155/167: FMEVGAPFL,3.1157
same,Log2FC,[6]; degron residues 146/147/149/150/152/153/154/155/167: FMNIGAPFL,3.2358 and 3.236
same,Log2FC,[6]; degron residues 146/147/149/150/152/153/154/155/167: FMPIGAPFL,3.0896
same,Log2FC,[6]; degron residues 146/147/149/150/152/153/154/155/167: FMPVGAAFL,3.0783
same,Log2FC,[6]; degron residues 146/147/149/150/152/153/154/155/167: FMPVGAPFL,3.0869
same,Log2FC,[6]; degron residues 146/147/149/150/152/153/154/155/167: FRDIGAPFL,3.3226 and 3.323
same,Log2FC,[6]; degron residues 146/147/149/150/152/153/154/155/167: FRDVGAPFL,3.2095
same,Log2FC,[6]; [14],3.3123
same,Log2FC,[6]; degron residues 146/147/149/150/152/153/154/155/167: FREVGAPFL,3.3928 and 3.393
same,Log2FC,[6]; degron residues 146/147/149/150/152/153/154/155/167: FRPVGAPFL,3.2684 and 3.268
same,Log2FC,[6]; degron residues 146/147/149/150/152/153/154/155/167: FYEIGAQFL,3.1346
same,Log2FC,[6]; [15],3.1049
same,Log2FC,[6]; degron residues 146/147/149/150/152/153/154/155/167: LCPIGFTCL,3.1410
same,Log2FC,[6]; degron residues 146/147/149/150/152/153/154/155/167: LCPIGFYCL,3.1590
same,Log2FC,[6]; degron residues 146/147/149/150/152/153/154/155/167: LYEIGFSCL,3.0997
same,Log2FC,[6]; degron residues 146/147/149/150/152/153/154/155/167: LYEIGFTCL,3.1905
same,Log2FC,[6]; degron residues 146/147/149/150/152/153/154/155/167: LYPIGFSCL,3.0902
same,degradation of endogenous IKZF1,[7],modest degradation of IKZF1
O=C1CCC(N2C(=O)c3cccc(OC(c4ccccc4)c4ccccc4)c3C2=O)C(=O)N1 (centres unmarked) [Compound 34],Dmax,"[1]; 18 h, Fig 2B",90%
O=C1CCC(N2C(=O)c3cccnc3C2=O)C(=O)N1 (centres unmarked) [Compound 35],Dmax,"[1]; 18 h, Fig 2B",60%
O=C1CCC(N2C(=O)c3ccncc3C2=O)C(=O)N1 (centres unmarked) [Compound 36],Dmax,"[1]; 18 h, Fig 2B",91%

# Source: paper PMC12645437, “Orthogonal IMiD-Degron Pairs Induce Selective Protein Degradation in Cells” (ACS Chemical Biology, 2025)
